Reference: patent US5595998A, “Pyrazoloquinolines” (priority 1994, dated 1997)

test system: ras p21 protein; test: Ras p21 Nucleotide Exchange Assay (inhibition of ^3H-GDP binding to p21 ras); assay type: biochemical; conditions: 50 μM
Procedure: Ras p21 Nucleotide Exchange Assay
The conditions for assay of nucleotide exchange inhibitors was adapted from Hall, A. and A. J. Self. 1986 J. Biol. Chem. 261: 10963-10965, which is hereby incorporated by reference.
0.5 μM ras p21 protein was incubated in 50 μls exhange buffer (50 mM Tris-HCl pH 7.5, 5 mM MgCl2, 50 mM NaCl and […]) on ice. Compounds dissolved in dimethyl sulfoxide (DMSO) were added to the desired concentration such that the final concentration of DMSO in the reaction mixture was 2% by weight. The reaction was incubated for 5 minutes on ice and then ^3 H-GDP (final concentration was 0.25 μM) was added.
Biological data are given throughout the specification in one of two forms: either as per cent inhibitions, or as the concentration at which the test compound causes 50% inhibition (IC50) of the binding of ^3 H-GDP to the p21 ras protein.
When the above assay was run at one concentration of the test compound, then the data was given as per cent inhibition at a particular concentration. […] When the assay was run at a series of concentrations, then the data were given as IC50 's.

For `COc1ccc2nc3nn([C@@H]4O[C@H](COC(=O)c5ccccc5)[C@@H](OC(=O)c5ccccc5)[C@@H]4OCc4ccccc4)c(C)c3c(Cl)c2c1`, the “ras p21 Assay (per cent inhibition)” value was 32%.

same assay, conditions: 100 μM

Compared with `COc1ccc2nc3c(c(C)nn3[C@@H]3O[C@H](COC(=O)c4ccccc4)[C@H]4OC(C)(C)O[C@H]43)c(OCCN(C)C)c2c1`, `COc1ccc2nc3c(c(C)nn3[C@@H]3O[C@H](COC(=O)c4ccccc4)[C@@H](OC(=O)c4ccccc4)[C@H]3OC(=O)c3ccccc3)c(OCCN(C)C)c2c1` is lower in “inhibition in the ras p21 assay” value: 59% for the first, 12% for the second.

In the case of `COc1ccc2nc3c(c(C)nn3[C@@H]3O[C@H](COC(=O)c4ccccc4)[C@@H](OC(=O)c4ccccc4)[C@H]3OC(=O)c3ccccc3)c(NCCN3CCOCC3)c2c1`, the “inhibition in the ras p21 assay” value is reported as 86%.

same assay, conditions: read-out: IC50 in the ras p21 assay

Going from `COc1ccc2nc3c(c(C)nn3[C@@H]3O[C@H](C(O)CC(=O)c4ccccc4)[C@H]4OC(=S)O[C@H]43)c(Cl)c2c1` (stereo partly shown) [Compound U] to `COc1ccc2nc3c(cc2c1)c(C)nn3[C@@H]1O[C@H](COC(=O)c2ccccc2)[C@@H](O)[C@H]1O`, the IC50 rises from 1.5 µM to 50 µM (33-fold).

With `Cc1nn([C@@H]2O[C@H](COC(=O)c3ccccc3)[C@@H](OC(=O)c3ccccc3)[C@H]2OC(=O)c2ccccc2)c2nc3ccc(O)cc3c(Cl)c12` the IC50 was 10 µM.

same assay, conditions: table 1; at (100), unit not given

Going from `COc1ccc2nc3nn([C@@H]4O[C@H](COC(=O)c5ccccc5)[C@@H](O)[C@H]4O)c(C)c3c(Cl)c2c1` [Cl O(CO)Ph OH OH] to `COc1ccc2nc3nn([C@@H]4O[C@H](COC(=O)c5ccccc5)[C@H]5OC(=S)O[C@H]54)c(C)c3c(Cl)c2c1` [Cl O(CO)Ph OC(S)O], the “Ras p21 Assay (per cent inhibition)” value rises from 49% to 86%.

Going from `COc1ccc2nc3nn([C@@H]4O[C@H](COC(=O)c5ccccc5)[C@@H](OC(C)=O)[C@H]4OC(C)=O)c(C)c3c(Cl)c2c1` [Cl O(CO)Ph OCOCH3 OCOCH3] to `COc1ccc2nc3nn([C@@H]4O[C@H](CO)[C@@H](O)[C@H]4O)c(C)c3c(Cl)c2c1` [Cl OH OH OH], the “Ras p21 Assay (per cent inhibition)” value falls from 20% to 0%.

For `COc1ccc2nc3nn([C@@H]4O[C@H](CO)[C@@H](O)[C@H]4O)c(C)c3c(O)c2c1` [OH OH OH OH], the “Ras p21 Assay (per cent inhibition)” value was 49%.

same assay, conditions: table 1; concentration causing 50% inhibition of ^3H-GDP binding; read-out: Ras p21 Assay (IC50)

`COc1ccc2nc3nn([C@@H]4O[C@H](COC(=O)c5ccccc5)[C@@H](OC(=O)c5ccccc5)[C@H]4OC(=O)c4ccccc4)c(C)c3c(O)c2c1` [OH O(CO)Ph O(CO)Ph O(CO)Ph] and `COc1ccc2nc3nn([C@@H]4O[C@H](COC(=O)c5ccccc5)[C@@H](OC(=O)c5ccccc5)[C@H]4OC(=O)c4ccccc4)c(C)c3c(Cl)c2c1` [Cl O(CO)Ph O(CO)Ph O(CO)Ph] are the same in IC50: 10 µM for the first, 10 µM for the second.

Work on `COc1ccc2nc3nn([C@@H]4O[C@H](COC(=O)c5ccccc5)[C@@H](OC(=O)c5ccccc5)[C@H]4OC(=O)c4ccccc4)c(C)c3cc2c1` [H O(CO)Ph O(CO)Ph O(CO)Ph] yielded an IC50 of 8 µM.

same assay, conditions: table 2; 50 μM

Going from `COc1ccc2nc3c(c(C)nn3[C@@H]3O[C@H](CNC(=O)c4ccccc4)[C@@H](O)[C@H]3O)c(Cl)c2c1` [O(CO)PhNH OH OH] to `COc1ccc2nc3c(c(C)nn3[C@@H]3O[C@H](CNC(=O)c4ccccc4)[C@H]4OC(C)(C)O[C@H]43)c(Cl)c2c1` [O(CO)PhNH OC(CH3)2 O], the “ras p21 Assay (per cent inhibition)” value rises from 24% to 56%.

First: COc1ccc2nc3c(c(C)nn3[C@@H]3O[C@H](COC(=O)CC(C)C)[C@@H](OC(=O)CC(C)C)[C@H]3OC(=O)CC(C)C)c(Cl)c2c1
Second: COc1ccc2nc3c(c(C)nn3[C@@H]3O[C@H](COC(=O)c4ccoc4)[C@@H](OC(=O)c4ccoc4)[C@H]3OC(=O)c3ccoc3)c(Cl)c2c1 [O(CO)-3-Fu O(CO)-3-Fu O(CO)-3-Fu]
The “ras p21 Assay (per cent inhibition)” value of the first is lower: 33% for the first, 49% for the second.

Going from `COc1ccc2nc3c(c(C)nn3[C@@H]3O[C@H](CN)[C@H]4OC(C)(C)O[C@H]43)c(Cl)c2c1` [NH2 OC(CH3)2 O] to `COc1ccc2nc3c(c(C)nn3[C@@H]3O[C@H](COC(=O)c4cccnc4)[C@@H](OC(=O)c4cccnc4)[C@H]3OC(=O)c3cccnc3)c(Cl)c2c1` [O(CO)Py O(CO)Py O(CO)Py], the “ras p21 Assay (per cent inhibition)” value falls from 38% to 33%.

same assay, conditions: table 2; 100 μM

Going from `COc1ccc2nc3c(c(C)nn3[C@@H]3O[C@H](COC(=O)c4cc(C)ccc4C)[C@@H](OC(=O)c4cc(C)ccc4C)[C@H]3OC(=O)c3cc(C)ccc3C)c(Cl)c2c1` to `COc1ccc(C(=O)OC[C@H]2O[C@@H](n3nc(C)c4c(Cl)c5cc(OC)ccc5nc43)[C@H](OC(=O)c3ccc(OC)cc3)[C@@H]2OC(=O)c2ccc(OC)cc2)cc1`, the “ras p21 Assay (per cent inhibition)” value rises from 37% to 44%.

Compared with `COc1ccc2nc3c(c(C)nn3[C@@H]3O[C@H](COC(=O)c4ccccc4)[C@@H](OCc4ccccc4)[C@H]3OCc3ccccc3)c(Cl)c2c1` [O(CO)Ph CH2 Ph CH2 Ph], `COc1ccc2nc3c(c(C)nn3[C@@H]3O[C@H](COCc4ccccc4)[C@@H](OCc4ccccc4)[C@H]3OCc3ccccc3)c(Cl)c2c1` [CH2 Ph CH2 Ph CH2 Ph] is lower in “ras p21 Assay (per cent inhibition)” value: 53% for the first, 35% for the second.

Going from `COc1ccc2nc3c(c(C)nn3[C@@H]3O[C@H](COC(C)=O)[C@@H](OC(C)=O)[C@H]3OC(C)=O)c(Cl)c2c1` [OCOCH3 O(CO)CH3 O(CO)CH3] to `COc1ccc2nc3c(c(C)nn3[C@@H]3O[C@H](COC(=O)c4ccccc4)[C@@H](OC(C)=O)[C@H]3OC(C)=O)c(Cl)c2c1` [O(CO)Ph O(CO)CH3 O(CO)CH3], the “ras p21 Assay (per cent inhibition)” value rises from 3% to 44%.

First: COc1ccc2nc3c(c(C)nn3[C@@H]3O[C@H](COC(=O)c4ccc([N+](=O)[O-])cc4)[C@@H](OC(=O)c4ccc([N+](=O)[O-])cc4)[C@H]3OC(=O)c3ccc([N+](=O)[O-])cc3)c(Cl)c2c1 [O(CO)Ph-4-NO2 (CO)Ph-4-NO2 O(CO)Ph-4-NO2]
Second: COc1ccc2nc3c(c(C)nn3[C@@H]3O[C@H](COC(=O)Cc4ccccc4)[C@@H](OC(=O)Cc4ccccc4)[C@H]3OC(=O)Cc3ccccc3)c(Cl)c2c1 [O(CO)CH2 Ph (CO)CH2 Ph O(CO)CH2 Ph]
The “ras p21 Assay (per cent inhibition)” value of the first is lower: 59% for the first, 62% for the second.

Compared with `COc1ccc2nc3c(c(C)nn3[C@@H]3O[C@H](COC(=O)c4ccccc4)[C@H]4OC(c5ccccc5)O[C@H]43)c(Cl)c2c1` (stereo partly shown) [O(CO)Ph OC(Ph)O], `COc1ccc2nc3c(c(C)nn3[C@@H]3O[C@H](COC(=O)c4ccccc4)[C@@H](O)[C@H]3O)c(Cl)c2c1` [O(CO)Ph OH OH] is lower in “ras p21 Assay (per cent inhibition)” value: 41% for the first, 16% for the second.

In the case of `COc1ccc2nc3c(c(C)nn3[C@@H]3O[C@H](CO)[C@H]4OC(C)(C)O[C@H]43)c(Cl)c2c1` [OH OC(CH3)2 O], the “ras p21 Assay (per cent inhibition)” value is reported as 11%.

same assay, conditions: table 2; concentration causing 50% inhibition of ^3H-GDP binding; read-out: ras p21 Assay (IC50)

`COc1ccc2nc3c(c(C)nn3[C@@H]3O[C@H](COC(=O)c4ccccc4)[C@@H](OC(=O)c4ccccc4)[C@H]3OC(=O)c3ccccc3)c(Cl)c2c1` [O(CO)Ph O(CO)Ph O(CO)Ph] and `COc1ccc2nc3c(c(C)nn3[C@@H]3O[C@H](COC(=O)c4ccco4)[C@@H](OC(=O)c4ccco4)[C@H]3OC(=O)c3ccco3)c(Cl)c2c1` [O(CO)-2-Fu O(CO)-2-Fu O(CO)-2-Fu] are the same in IC50: 10 µM for the first, 10 µM for the second.

Compared with `COc1ccc2nc3c(c(C)nn3[C@@H]3O[C@H](C(O)CC(=O)c4ccccc4)[C@H]4OC(=S)O[C@H]43)c(Cl)c2c1` (stereo partly shown) [Compound U], `COc1ccc2nc3c(c(C)nn3[C@@H]3O[C@H](COC(=O)c4ccccc4)[C@H]4OC(=S)O[C@H]43)c(Cl)c2c1` [(CO)Ph OC(S)O] is 10-fold higher in IC50: 1.5 µM for the first, 15 µM for the second.

For `COc1ccc2nc3c(c(C)nn3[C@H]3C=C[C@@H](COC(=O)c4ccccc4)O3)c(Cl)c2c1` [O(CO)Ph --], the IC50 was 90 µM.

same assay, conditions: table 3; 50 μM

First: COc1ccc2nc3c(c(C)nn3-c3ccc(/C=C/C(=O)c4ccccc4)o3)c(Cl)c2c1
Second: COc1ccc2nc3c(c(C)nn3[C@H]3C=C[C@@H](C(O)CC(=O)c4ccccc4)O3)c(Cl)c2c1 (stereo partly shown)
The “ras 21 assay (per cent inhibition)” value of the first is higher: 61% for the first, 48% for the second.

For `COc1ccc2nc3c(c(C)nn3[C@@H]3O[C@H](C(O)CC(=O)c4ccccc4)[C@@H](O)[C@H]3O)c(Cl)c2c1` (stereo partly shown), the “ras 21 assay (per cent inhibition)” value was 34%.

same assay, conditions: table 3; 100 μM

First: COc1ccc2nc3c(c(C)nn3[C@H]3C=C[C@@H](CCC(=O)c4ccccc4)O3)c(Cl)c2c1
Second: COc1ccc2nc3c(c(C)nn3[C@H]3CC[C@@H](COC(=O)c4ccccc4)O3)c(Cl)c2c1
The “ras 21 assay (per cent inhibition)” value of the first is higher: 53% for the first, 38% for the second.

With `COc1ccc2nc3c(c(C)nn3[C@@H]3O[C@H](/C=C/C(=O)c4ccccc4)[C@H]4OC(C)(C)O[C@H]43)c(Cl)c2c1` the “ras 21 assay (per cent inhibition)” value was 53%.

same assay, conditions: table 3; concentration causing 50% inhibition of ^3H-GDP binding; read-out: ras 21 assay (IC50)

First: COc1ccc2nc3c(c(C)nn3[C@@H]3O[C@H](/C=C/C(=O)c4ccccc4)[C@@H](O)[C@H]3O)c(Cl)c2c1
Second: COc1ccc2nc3c(c(C)nn3[C@H]3C=C[C@@H](/C=C/C(=O)c4ccccc4)O3)c(Cl)c2c1
The IC50 of the first is 3.5-fold lower: 10 µM for the first, 35 µM for the second.

same assay, conditions: table 4 (arabinose derivatives); 50 μM

First: COc1ccc2nc3c(c(C)nn3[C@@H]3O[C@H](CO)[C@@H](O)[C@@H]3O)c(Cl)c2c1 [CH2 OH OH OH Cl]
Second: COc1ccc2nc3c(c(C)nn3[C@@H]3O[C@H](COC(=O)c4ccccc4)[C@@H](OC(=O)c4ccccc4)[C@@H]3OC(=O)c3ccccc3)c(Cl)c2c1 [CH2 OBz OBz OBz Cl]
The “p21 ras assay (per cent inhibition)” value of the first is higher: 18% for the first, 17% for the second.

With `COc1ccc2nc3c(c(C)nn3[C@@H]3O[C@H](COCc4ccccc4)[C@@H](OCc4ccccc4)[C@@H]3OCc3ccccc3)c(Cl)c2c1` [CH2 OBn OBn OBn Cl] the “p21 ras assay (per cent inhibition)” value was 31%.

same assay, conditions: table 4 (arabinose derivatives); concentration causing 50% inhibition of ^3H-GDP binding; read-out: p21 ras assay (IC50)

`COc1ccc2nc3c(cc2c1)c(C)nn3[C@@H]1O[C@H](COC(=O)c2ccccc2)[C@@H](OC(=O)c2ccccc2)[C@@H]1OC(=O)c1ccccc1` [CH2 OBz OBz OBz H] gave an IC50 of 10 µM.
